Results reported in patent US7189701B1, “Tetrapeptide stimulating functional activity of neurons pharmacological agent based thereon and method of use thereof” (Sankt-Petersburgskaya Obschestvennaya Organizatsiya …, priority 1999, dated 2007).
Residues, ends and D or L forms follow the SMILES beside them.

Key:
[1] = test system: mice subject to ECS-induced amnestic impact; test: CRPA in mice subject to ECS-induced amnestic impact; format: in vivo; conditions: testing in 24 hours after the training
Experimental: Nootropic activity of L-Ala-L-Glu-L-Asp-L-Pro tetrapeptide was studied with the application of the conditioned reflex of passive avoidance (CRPA) in the intact animals and under the conditions of amnestic impacts (electroconvulsive treatment and ethanol intoxication).
The experiments were carried out on male mice weighing 20 to 24 g. For each animal the period of stay in dark and lighted chamber departments was registered during 2 min. before the training. […] The animals were trained by means of applying an electric pain stimulus in the preferred dark department, which lasted until the animal left this department. L-Ala-L-Glu-L-Asp-L-Pro tetrapeptide was introduced intraperitoneally 60 min. before the training. Testing was performed in 2 and 24 hours after the training. The period the animal stayed in the dark and lighted chamber departments and the number of animals not entering the dark department (“educated” animals) were recorded.
Electroconvulsive shock (ECS) was induced in the mice no later than in 10 sec. after the training via corneal electrodes by an electric impulse of 25 mA, which lasted for 0.5 sec. L-Ala-L-Glu-L-Asp-L-Pro tetrapeptide was introduced intraperitoneally 60 min. before the training. Testing was performed in 24 hours after the training.

[2] = test system: patients with vascular dementia; test: Preliminary clinical trial in patients with vascular dementia; format: in vivo, human; conditions: 3 μg intramuscularly once daily for 30 days
Experimental: Twelve patients aged 69 to 76 years (7 males and 5 females) suffering from hypertensive disease and atherosclerosis of cerebral vessels for a long time were enrolled in the study. Three of them had apoplexy in their medical histories. Initial data obtained in the similar patients before the treatment was used as control. L-Ala-L-Glu-L-Asp-L-Pro tetrapeptide was intramuscularly injected in a single dose of 3 μg once daily for 30 days.
Results were assessed after the treatment in comparison with the data obtained before the treatment. Basing on the examination results, changes in the patients' state were defined according to the following gradation: improvement (substantial, average or minor), deterioration, no changes.
At the pretreatment examination signs of intellectual-mnemic defect were found in all the patients: memory impairment, intellectual deterioration, aphasia, apraxia and agraphia disorders. In 9 patients signs of disorientation in time and place were found. The patients' emotional state was labile, manifested with periodical alternation of apathy and euphoria, complacency and anger aptness.

C[C@H](N)C(=O)N[C@@H](CCC(=O)O)C(=O)N[C@@H](CC(=O)O)C(=O)N1CCC[C@H]1C(=O)O [L-Ala-L-Glu-L-Asp-L-Pro tetrapeptide, L-Alanyl-L-Glutamyl-L-Aspartyl-L-Proline] (H-AEDP-OH)
Total period of stay in the dark chamber in 24 hours [1]: 38.1 ± 4.4 | Trained animals (%) ([1]; i.p. 60 min. before the training): 25% | patients showing reverse development of the pathologic symptoms [2]: 74.8%
